Each block holds one compound with its values, some of them ahead of it.
Key:
[1] = biological target: T1, Histone-lysine N-methyltransferase EHMT2 (Homo sapiens) (UniProt Q96KQ7); test: Selectivity interaction (Methyltransferase screen (radiometric assays, panel of 8 PRMTs, 21 protein lysine methyltransferases, 3 DNA methyltransferases, and one RNA methyltransferase)) EUB0000271b EHMT2
T1 sequence (whole entry): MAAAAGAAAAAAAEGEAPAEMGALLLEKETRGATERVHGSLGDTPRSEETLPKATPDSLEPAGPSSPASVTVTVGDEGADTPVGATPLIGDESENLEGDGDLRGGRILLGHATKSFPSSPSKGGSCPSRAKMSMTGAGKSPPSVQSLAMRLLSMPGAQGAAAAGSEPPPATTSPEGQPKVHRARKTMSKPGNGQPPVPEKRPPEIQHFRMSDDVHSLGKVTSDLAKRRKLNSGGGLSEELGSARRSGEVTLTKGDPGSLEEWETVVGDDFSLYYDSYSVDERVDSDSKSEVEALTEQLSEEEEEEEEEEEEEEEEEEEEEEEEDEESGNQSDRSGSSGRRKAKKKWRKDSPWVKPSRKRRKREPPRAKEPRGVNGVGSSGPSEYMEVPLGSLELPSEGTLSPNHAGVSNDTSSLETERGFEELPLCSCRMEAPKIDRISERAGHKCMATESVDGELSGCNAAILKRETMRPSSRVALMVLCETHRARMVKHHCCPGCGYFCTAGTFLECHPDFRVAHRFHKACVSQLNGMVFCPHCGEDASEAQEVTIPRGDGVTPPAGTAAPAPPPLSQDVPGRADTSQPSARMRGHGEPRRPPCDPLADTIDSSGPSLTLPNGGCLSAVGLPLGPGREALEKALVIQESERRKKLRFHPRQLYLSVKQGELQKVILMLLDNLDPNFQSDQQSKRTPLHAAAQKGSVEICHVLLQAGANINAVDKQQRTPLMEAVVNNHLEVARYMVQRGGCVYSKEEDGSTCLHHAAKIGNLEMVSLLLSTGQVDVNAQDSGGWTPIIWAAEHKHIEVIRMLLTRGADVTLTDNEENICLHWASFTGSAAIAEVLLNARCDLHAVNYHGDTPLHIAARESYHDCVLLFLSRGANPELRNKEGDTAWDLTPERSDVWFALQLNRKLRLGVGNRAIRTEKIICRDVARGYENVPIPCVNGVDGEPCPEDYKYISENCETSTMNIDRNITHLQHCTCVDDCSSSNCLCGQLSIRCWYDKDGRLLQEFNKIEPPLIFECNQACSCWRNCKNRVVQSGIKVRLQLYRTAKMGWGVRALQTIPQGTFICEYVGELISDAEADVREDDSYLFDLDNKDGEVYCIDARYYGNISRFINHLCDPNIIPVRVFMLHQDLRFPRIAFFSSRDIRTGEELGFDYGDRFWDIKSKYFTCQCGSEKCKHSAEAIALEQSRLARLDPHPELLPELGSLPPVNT

[2] = biological target: D(4) dopamine receptor (Homo sapiens) (UniProt P21917); test: Selectivity interaction (Eurofins CEREP Diversity Profile (receptors and ion channels)) EUB0000279b DRD4; details: at 10 µM
[3] = biological target: Mitogen-activated protein kinase kinase kinase kinase 4 (Homo sapiens, UniProt O95819); test: Selectivity interaction (Kinase panel (literature)) EUB0001199aCl MAP4K4; details: at 1 µM
[4] = biological target: Calcium/calmodulin-dependent protein kinase type 1B (Homo sapiens) (UniProt Q6P2M8); test: Selectivity interaction (KinomeScan (DiscoverX)) EUB0000229b PNCK; details: at 10 µM
[5] = biological target: T2, Receptor-type tyrosine-protein kinase FLT3 (Homo sapiens, UniProt P36888); test: Selectivity interaction (Kinase panel (Invitrogen, enzymatic assay)) EUB0000162b FLT3
T2 sequence (P36888 whole entry): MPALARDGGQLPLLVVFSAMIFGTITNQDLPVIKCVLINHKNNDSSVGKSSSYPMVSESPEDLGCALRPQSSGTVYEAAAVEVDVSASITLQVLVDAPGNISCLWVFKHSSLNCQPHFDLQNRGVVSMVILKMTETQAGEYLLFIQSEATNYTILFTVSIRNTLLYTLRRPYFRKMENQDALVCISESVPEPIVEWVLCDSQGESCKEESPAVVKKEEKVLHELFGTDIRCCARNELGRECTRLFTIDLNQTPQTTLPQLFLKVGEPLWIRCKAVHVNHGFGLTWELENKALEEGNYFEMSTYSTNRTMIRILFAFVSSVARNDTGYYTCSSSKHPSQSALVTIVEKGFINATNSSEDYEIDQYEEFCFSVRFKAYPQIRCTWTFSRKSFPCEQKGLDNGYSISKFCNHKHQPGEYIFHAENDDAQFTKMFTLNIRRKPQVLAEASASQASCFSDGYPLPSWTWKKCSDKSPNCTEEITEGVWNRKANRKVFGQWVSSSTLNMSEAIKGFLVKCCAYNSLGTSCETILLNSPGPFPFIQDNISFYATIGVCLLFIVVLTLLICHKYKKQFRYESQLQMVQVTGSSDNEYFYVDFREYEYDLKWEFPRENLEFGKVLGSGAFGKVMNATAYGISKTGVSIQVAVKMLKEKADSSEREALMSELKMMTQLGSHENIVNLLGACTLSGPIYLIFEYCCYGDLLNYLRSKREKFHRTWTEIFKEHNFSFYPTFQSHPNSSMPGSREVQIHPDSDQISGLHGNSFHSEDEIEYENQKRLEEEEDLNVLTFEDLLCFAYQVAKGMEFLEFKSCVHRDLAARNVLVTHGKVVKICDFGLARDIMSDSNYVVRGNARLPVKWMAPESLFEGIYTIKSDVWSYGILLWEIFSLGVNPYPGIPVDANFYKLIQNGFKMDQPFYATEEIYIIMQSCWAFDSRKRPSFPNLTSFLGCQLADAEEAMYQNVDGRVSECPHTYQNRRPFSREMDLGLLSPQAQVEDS

Mitogen-activated protein kinase kinase kinase kinase 4, sequence (O95819 2-1239 limits assumed): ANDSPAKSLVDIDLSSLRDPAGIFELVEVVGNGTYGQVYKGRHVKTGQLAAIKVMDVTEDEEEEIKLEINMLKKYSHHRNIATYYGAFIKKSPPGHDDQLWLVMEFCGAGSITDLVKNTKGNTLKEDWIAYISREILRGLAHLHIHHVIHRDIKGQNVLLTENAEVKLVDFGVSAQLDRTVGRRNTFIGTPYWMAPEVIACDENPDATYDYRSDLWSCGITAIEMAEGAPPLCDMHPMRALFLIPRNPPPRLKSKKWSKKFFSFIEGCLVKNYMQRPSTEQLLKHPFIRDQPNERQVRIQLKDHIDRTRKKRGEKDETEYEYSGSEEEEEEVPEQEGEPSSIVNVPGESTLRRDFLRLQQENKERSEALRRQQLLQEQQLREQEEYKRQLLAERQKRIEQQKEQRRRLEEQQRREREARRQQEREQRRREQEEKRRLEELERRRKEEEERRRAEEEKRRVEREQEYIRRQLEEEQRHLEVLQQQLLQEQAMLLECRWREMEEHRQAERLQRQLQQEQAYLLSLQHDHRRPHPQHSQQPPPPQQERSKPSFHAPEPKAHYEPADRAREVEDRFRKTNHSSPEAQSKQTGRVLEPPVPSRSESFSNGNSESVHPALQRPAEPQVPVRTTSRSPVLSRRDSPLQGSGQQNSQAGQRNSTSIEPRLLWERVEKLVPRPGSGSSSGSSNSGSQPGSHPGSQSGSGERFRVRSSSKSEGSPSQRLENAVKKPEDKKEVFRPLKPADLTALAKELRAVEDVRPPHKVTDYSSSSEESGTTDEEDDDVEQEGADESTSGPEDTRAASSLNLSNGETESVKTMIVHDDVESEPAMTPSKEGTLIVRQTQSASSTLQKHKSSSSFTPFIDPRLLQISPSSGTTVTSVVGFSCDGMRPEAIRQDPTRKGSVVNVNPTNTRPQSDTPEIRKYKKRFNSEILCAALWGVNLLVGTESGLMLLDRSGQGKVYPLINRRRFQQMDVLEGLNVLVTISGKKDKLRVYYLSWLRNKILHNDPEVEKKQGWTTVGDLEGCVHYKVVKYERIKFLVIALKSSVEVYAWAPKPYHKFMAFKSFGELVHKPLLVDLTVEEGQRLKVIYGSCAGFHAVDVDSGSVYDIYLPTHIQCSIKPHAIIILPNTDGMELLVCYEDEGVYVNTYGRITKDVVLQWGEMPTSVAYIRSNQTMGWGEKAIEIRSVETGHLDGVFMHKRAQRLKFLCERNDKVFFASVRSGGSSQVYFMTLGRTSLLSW
Calcium/calmodulin-dependent protein kinase type 1B (Homo sapiens), sequence (Q6P2M8 whole entry): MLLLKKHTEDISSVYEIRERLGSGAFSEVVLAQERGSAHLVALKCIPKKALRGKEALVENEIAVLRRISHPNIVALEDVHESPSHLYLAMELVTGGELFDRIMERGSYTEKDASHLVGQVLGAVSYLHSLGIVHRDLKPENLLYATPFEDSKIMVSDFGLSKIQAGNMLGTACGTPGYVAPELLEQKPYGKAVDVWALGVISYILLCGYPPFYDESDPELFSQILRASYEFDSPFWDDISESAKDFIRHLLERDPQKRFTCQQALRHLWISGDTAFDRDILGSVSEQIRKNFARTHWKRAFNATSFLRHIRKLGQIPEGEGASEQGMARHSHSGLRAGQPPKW
D(4) dopamine receptor (Homo sapiens), sequence (P21917 whole entry): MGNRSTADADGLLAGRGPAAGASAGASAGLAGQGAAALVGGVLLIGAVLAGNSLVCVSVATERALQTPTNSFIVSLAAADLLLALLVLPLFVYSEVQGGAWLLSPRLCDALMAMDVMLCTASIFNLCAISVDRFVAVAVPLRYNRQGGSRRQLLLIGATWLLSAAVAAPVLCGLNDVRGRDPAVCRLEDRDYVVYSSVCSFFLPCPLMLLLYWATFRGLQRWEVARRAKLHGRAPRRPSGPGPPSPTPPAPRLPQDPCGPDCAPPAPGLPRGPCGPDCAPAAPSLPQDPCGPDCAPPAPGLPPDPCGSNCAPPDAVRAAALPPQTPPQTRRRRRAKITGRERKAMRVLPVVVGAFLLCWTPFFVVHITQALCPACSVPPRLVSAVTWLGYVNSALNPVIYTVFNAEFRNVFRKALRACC

SMILES: Cc1cc(C)cc([C@@H]2c3cc(C)ccc3NC(=O)CN2C(=O)c2ccc(Br)s2)c1
% of activity ([1]; at 1 µM): 96% | % of activity ([1]; at 10 µM): 96.3%

SMILES: CN1Cc2nccc(-c3cn(C)nc3-c3ccc(F)cc3)c2C1=O
% of inhibition [3]: 65%

SMILES: COc1cc(N(C)c2ccnc3ccc(C(F)(F)F)cc23)cc(OC)c1OC
% binding [4]: 98%

Now from value to compound:

% of control [2]: 103%
SMILES: CC(=O)c1cc(-c2ccccc2OCC2CC2)c2ncccn12

IC50 [5]: 1360 nM
SMILES: CN(C)C(=O)Cn1cc(-c2ccc(-c3cncc4ccccc34)cc2)cn1

— ChEMBL document CHEMBL5465560, “Selectivity Literature for EUbOPEN Chemogenomic Library” (2024)
